“Also recorded” adds a separate entry of the source. Where two headings read alike, the source gives them in different places.
Legend:
Du145 = assay: Cytotoxicity assay (cell titer-glo and calcein AM), Du145; details: Du145, % error in parentheses
SF-268 = assay: Cytotoxicity assay (cell titer-glo and calcein AM), SF-268; details: SF-268, % error in parentheses
MCF7 = assay: Cytotoxicity assay (cell titer-glo and calcein AM), MCF7
[1] = Precipitation in assay media; assay type: physicochemical; details: cell culture media / assay
Hep3B = assay: Cytotoxicity assay (cell titer-glo and calcein AM), Hep3B; details: Hep 3B, % error in parentheses
ADR-RES = assay: Cytotoxicity assay (cell titer-glo and calcein AM), ADR-RES; details: NCI/ADR RES, % error in parentheses
A549 = assay: Cytotoxicity assay (cell titer-glo and calcein AM), A549; details: A549, % error in parentheses
[2] = system: mouse mammary normal epithelial control cell line; assay: Cytotoxicity assay, normal control cell line
SK-OV-3 = assay: Cytotoxicity assay (cell titer-glo and calcein AM), SK-OV-3
NCI-H460 = assay: Cytotoxicity assay (cell titer-glo and calcein AM), NCI-H460; details: NCI-H460, % error in parentheses
tubulin = assay: In vitro tubulin polymerization assay (fluorescence-based); assay type: biochemical; set-up: key to tubulin polymeriz.: ‘D’ designates destabilizer; ‘S’ designates stabilizer; details: for effect on tubulin polymerization / microtubules: tested in duplicate on at least two days
Method: In vitro tubulin polymerization assays were performed using a fluorescence-based assay (Cytoskeleton, Inc., Denver, Colo.). […] Aliquots (5 μL) of each compound or control were added to a 96-well black half area plate (Corning Costar, Inc.) pre-warmed to 37° C. Cold tubulin reaction mix (50 μL 1× Buffer—80 mM piperazine-N,N′-bis[2-ethanesulfonic acid]sequisodium salt; 2.0 mM magnesium chloride; 0.5 mM ethylene glycol-bis[β-amino-ethyl ether) N,N,N′,N′-tetra-acetic acid, pH 6.9, 10 μM fluorescent reporter; 20% tubulin glycerol buffer—80 mM piperazine-N,N′-bis[2-ethanesulfonic acid] sequisodium salt; 2.0 mM magnesium chloride; 0.5 mM ethylene glycol-bis(β-amino-ethyl ether) N,N,N′,N′-tetra-acetic acid, 60% v/v glycerol, pH 6.9, 1 mM GTP; and 2 mg mL^−1 tubulin stock) was added to each of the compounds. […] Polymerization curves were generated in Excel after background correction and the effects of test compounds were compared to controls.
Library members that accelerated the rate of tubulin polymerization were deemed microtubule stabilizers, whereas compounds that decelerated the rate of tubulin polymerization were deemed microtubule de-stabilizers.

A549 cells [3] = assay: Drug combination study with paclitaxel (Chou-Talalay combination index); details: for synergy (paclitaxel): combination index class, combination with paclitaxel, Chou-Talalay method; for plus paclitaxel, mean CI / plus paclitaxel, median CI: combination index, paclitaxel held at IC10, A549 cells; for interaction with paclitaxel/taxol: drug combination, A549 cells, Chou-Talalay;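 for all read-outs here: combination indexes averaged only over points where fraction affected exceeded 0.2, with each synergy experiment repeated at least three times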
Method: (§1) Ten thousand A549 cells per well were plated in triplicate in 96 well black tissue culture treated plates. Cells were incubated for one hour at 37° C. to allow cells to attach.
(§2) All synergy experiment results were replicated at least three times and the overall effects analyzed by averaging all combination indexes generated if the fraction affected was greater than 0.2.

[4] = system: nine human cancer cell lines and one normal mouse control cell line; assay: Cytotoxicity screen across the whole cell line panel; assay type: cell-based
A549 cells [5] = assay: Drug combination study with colchicine (Chou-Talalay combination index); details: for plus colchicine, mean CI / plus colchicine, median CI: combination index, colchicine held at IC10, A549 cells; for interaction with colchicine: drug combination, A549 cells, Chou-Talalay
Method: as §1, §2

[6] = read-out: Cytotoxicity IC50, Du145, CTG, CTG (cell titer-glo) readout
[7] = read-out: Cytotoxicity IC50, Du145, calcein, calcein AM readout
[8] = read-out: Cytotoxicity IC50, SF-268, CTG, CTG (cell titer-glo) readout
[9] = read-out: Cytotoxicity IC50, SF-268, calcein, calcein AM readout
[10] = read-out: Cytotoxicity IC50, MCF7, CTG, CTG (cell titer-glo) readout, % error in parentheses
[11] = read-out: Cytotoxicity IC50, MCF7, calcein, calcein AM readout, % error in parentheses
[12] = read-out: Cytotoxicity IC50, Hep 3B, CTG, CTG (cell titer-glo) readout
[13] = read-out: Cytotoxicity IC50, Hep 3B, calcein, calcein AM readout
[14] = read-out: Cytotoxicity IC50, NCI/ADR RES, CTG, CTG (cell titer-glo) readout
[15] = read-out: Cytotoxicity IC50, NCI/ADR RES, calcein, calcein AM readout
[16] = read-out: Cytotoxicity IC50, A549, CTG, CTG (cell titer-glo) readout
[17] = read-out: Cytotoxicity IC50, A549, calcein, calcein AM readout
[18] = read-out: Cytotoxicity IC50, NmuMG, CTG, CTG (cell titer-glo) readout, % error in parentheses
[19] = read-out: Cytotoxicity IC50, NmuMG, calcein, calcein AM readout, % error in parentheses
[20] = read-out: Cytotoxicity IC50, SK-OV-3, CTG, SK-OV-3, CTG (cell titer-glo) readout, % error in parentheses
[21] = read-out: Cytotoxicity IC50, SK-OV-3, calcein, SK-OV-3, calcein AM readout, % error in parentheses
[22] = read-out: Cytotoxicity IC50, NCI-H460, CTG, CTG (cell titer-glo) readout
[23] = read-out: Cytotoxicity IC50, NCI-H460, calcein, calcein AM readout

Row | Compound | IC50 (Du145; [6]) | IC50 (Du145; [7]) | IC50 (SF-268; [8]) | IC50 (SF-268; [9]) | IC50 (MCF7; [10]) | IC50 (MCF7; [11]) | IC50 (Hep3B; [12]) | IC50 (Hep3B; [13]) | IC50 (ADR-RES; [14]) | IC50 (ADR-RES; [15]) | IC50 (A549; [16]) | IC50 (A549; [17]) | IC50 [2, 18] | IC50 [2, 19] | IC50 (SK-OV-3; [20]) | IC50 (SK-OV-3; [21]) | IC50 (NCI-H460; [22]) | IC50 (NCI-H460; [23]) | tubulin polymeriz. (tubulin) | effect on tubulin polymerization / microtubules (tubulin) | other results
1 | COc1cc2c(c(OC)c1OC)-c1ccc(OC)c(=O)cc1C(NC(=O)CN(OC)C1OC(COCc3ccccc3)C(OCc3ccccc3)C1OCc1ccccc1)CC2 (stereo not drawn) [Col53] | 41 nM | 32 nM | 37 nM | 18 nM | 49 nM | 39 nM | 47 nM | 69 nM | 46 nM | 37 nM | 48 nM | 62 nM | 120 nM | 392 nM | 42 nM | 36 nM | 41 nM | 71 nM |  |  | precipitation [1]: precipitation in cell culture media; also recorded: precipitated
2 | D-glucorono-6,3-lactonide [Col45] | 1140 nM | 939 nM | 398 nM | 462 nM | 760 nM | 679 nM | 793 nM | 962 nM | 1140 nM | 403 nM | 1100 nM | 1060 nM | 1460 nM | > 10000 nM | 836 nM | 887 nM | 775 nM | 1020 nM | D | destabilizing; also recorded: destabilized microtubules | synergy (paclitaxel) (A549 cells [3]): ++++ (strong synergism, Cl 0.1-0.3); plus paclitaxel, mean CI (A549 cells [3]): 0.12; plus paclitaxel, median CI (A549 cells [3]): 0.07; interaction with paclitaxel/taxol (A549 cells [3]): strong synergism; IC50 ([4]; cell lines other than ADR-Res, SF-268 and HCT-116, read-out: potencies (IC50) in all other cell lines examined): > 900 nM; plus colchicine, mean CI (A549 cells [5]): 107.40; plus colchicine, median CI (A549 cells [5]): 102.90; interaction with colchicine (A549 cells [5]): strong antagonism
3 | COc1cc2c(c(OC)c1OC)-c1ccc(OC)c(=O)cc1[C@@H](NC(C)=O)CC2 [colchin] | 169 nM |  | 67 nM |  |  |  |  |  | 18 nM |  |  |  |  |  |  |  |  |  |  |  | IC50 (HCT-116): 153 nM
4 | COc1cc2c(c(OC)c1OC)-c1ccc(OC)c(=O)cc1[C@@H](NC(=O)CN(OC)[C@@H]1O[C@H](CO)[C@@H](O[C@H]3O[C@H](CO)[C@@H](O[C@H]4O[C@H](CO)[C@@H](O)[C@H](O)[C@H]4O)[C@H](O)[C@H]3O)[C@H](O)[C@H]1O)CC2 [Col13, maltotrioside] | > 10000 nM | > 10000 nM | > 10000 nM | > 10000 nM | 9860 nM | > 10000 nM | > 10000 nM | > 10000 nM | > 10000 nM | > 10000 nM | > 10000 nM | > 10000 nM | > 10000 nM | > 10000 nM | > 10000 nM | > 10000 nM | > 10000 nM | 2580 nM |  |  | IC50 (HCT-116): > 10000 nM
5 | 2-deoxy-D-galactoside [Col6] | 892 nM | 958 nM | 632 nM | 691 nM | 665 nM | 2220 nM | 817 nM | 1120 nM | 877 nM | 887 nM | 782 nM | 942 nM | 3260 nM | 4170 nM | 388 nM | 381 nM | 745 nM | 948 nM | D | destabilizing; also recorded: destabilized microtubules | synergy (paclitaxel) (A549 cells [3]): + (slight synergism, Cl 0.85-0.9); plus paclitaxel, mean CI (A549 cells [3]): 0.88; plus paclitaxel, median CI (A549 cells [3]): 0.52; interaction with paclitaxel/taxol (A549 cells [3]): synergy; IC50 ([4]; all cell lines other than SK-OV-3, range printed with mixed units nM-μM, read-out: potencies (IC50) in all other cell lines): 691 to 1120 nM; plus colchicine, mean CI (A549 cells [5]): 1.30; plus colchicine, median CI (A549 cells [5]): 1.19; interaction with colchicine (A549 cells [5]): antagonism; IC50 (SK-OV-3; read-out: IC50 in SK-OV-3 cells): 381 nM

— US20130012466A1 (priority 2006, published 2013)
